Measurements reported in patent publication US4720493A, “Thienylthiazole compounds” (Yoshitomi Pharmaceutical Industries, Ltd., priority 1984, dated 1988).
Counter-ions that a name gives are not always drawn.

Key:
gastric mucous membrane = experiment: Effect on injury of gastric mucous membrane (ethanol); assay type: in vivo, male Wistar rats; conditions: 30 min before ethanol 5 ml/kg p.o.
Experimental: Male Wistar rats, weighing 170-250 g, were deprived of food for 48 hours and water for 24 hours and then test compounds were intraperitoneally administered. Thirty minutes after administration of test compounds, 5 ml/kg of ethanol was orally administered. One hour later the stomach of each rat was excised and inflated with 8 ml of a 3% formalin solution. The stomach was incised along the greater curvature and the area (mm^2) of gastric injury were measured and summed. The square root of the sum was used as an ulcer index.

gastric secretion = experiment: Effect on gastric secretion (Shay pylorus ligation); assay type: in vivo; conditions: 10 mg/kg s.c., pylorus-ligated female Wistar rats, 4 hours
Experimental: The experiment was performed according to the method of Shay et al described in Gastroenterology, vol 5, p. 43, 1945.
Groups of ten female Wistar rats, weighing 130.200 g, were deprived of food and the abdomen of each rat was incised and the pylorus ligated under ether anesthesia. Immediately after pylorus ligation, 10 mg/kg of test compounds were subcutaneously administered. After 4 hours, the gastric contents were collected and centrifuged. The supernatant was regarded as volume of gastric secretion. The acidity of gastric juice was determined by titrating the gastric juice with 0.1N sodium hydroxide to pH 7.0 with an automatic titrator (Kyoto Denshi Kogyo K.K., AT-107).
The percent inhibitions (%) of the compounds of the present invention on volume of gastric juice secretion and acidity of gastric juice were calculated and the results are summarized in Table 1.

Toxicity = assay type: in vivo, ddY-mice
From the text: Compounds of Examples 5, 11, 14, 15 and 55 were orally or intraperitoneally administered to groups of five ddY-mice.

tonic seizure = experiment: Antianxiety effect (bicuculline-induced tonic seizure); assay type: in vivo; conditions: Mus musculus, po, 1 hour before bicuculline 0.6 mg/kg i.v., male ddY-mice; read-out: ED50 (prevention of tonic seizure in half of the animals)
Experimental: Test compounds were orally administered to groups of seven male ddY-mice and an hour later 0.6 mg/kg of bicuculline was intraveneously administered. […] The ED50 (mg/kg) was calculated by the probit method as the dose which is sufficient to prevent tonic seizure in half of the animals.

hypoxia = experiment: Effect on hypoxia (survival time); assay type: in vivo, female dd-strain mice; conditions: 30 mg/kg p.o., 30 min before hypoxia 200 mmHg, mice
Experimental: According to the method of Nakanishi et al described in Life Science, vol. 13, p. 467, 1973, 30 mg/kg of test compounds were orally administered to groups of six female dd-strain mice and 30 minutes later the survival time, i.e. time required until respiratory failure, was measured under the hypoxia condition of 200 mmHg. The extention of the survival time against the control group was expressed as a percentage and the results are summarized in Table 3.

CC(C)NCc1ccc(-c2csc(N)n2)s1.O=C(O)/C=C\C(=O)O [Example 7, 2-Amino-4-(5-isopropylaminomethyl-2-thienyl)thiazole maleate]
Percent inhibition (ulcer index, against control group) (gastric mucous membrane; 3 mg/kg i.p.): 51% | Percent inhibition (ulcer index, against control group) (gastric mucous membrane; 10 mg/kg i.p.): 63% | Percent inhibition of acidity of gastric juice (gastric secretion): 31% | Percent inhibition of volume of gastric juice secretion (gastric secretion): 80%

CCN(CC)Cc1ccc(-c2csc(N)n2)s1.O=C(O)/C=C/C(=O)O [Example 4, 2-Amino-4-(5-diethylaminomethyl-2-thienyl)thiazole fumarate]
Percent inhibition of acidity of gastric juice (gastric secretion): 38% | Percent inhibition of volume of gastric juice secretion (gastric secretion): 65%

Nc1nc(-c2ccc(CNC(=O)COc3ccccc3)s2)cs1.O=C(O)/C=C\C(=O)O [Example 15, 2-Amino-4-(5-phenoxyacetylaminomethyl-2-thienyl)thiazole maleate]
survival of mice, intraperitoneal (Toxicity; 300 mg/kg intraperitoneal, five days after administration, ddY-mice): All mice survived | survival of mice, oral (Toxicity; 1000 mg/kg oral, five days after administration, ddY-mice): All mice survived

Nc1nc(-c2ccc(CCN3CCN(c4cccc(C(F)(F)F)c4)CC3)s2)cs1 [Example 47, 2-Amino-4-[5-(2-(4-(3-trifluoromethylphenyl)-1-piperazinyl)ethyl)-2-thienyl]thiazole]
ED50 (tonic seizure): 21 mg/kg

CC(Oc1ccccc1)C(=O)NCc1ccc(-c2csc(N)n2)s1.O=C(O)/C=C\C(=O)O (stereo not drawn) [Example 50, 2-Amino-4-[5-(2-phenoxypropionylaminomethyl)-2-thienyl]thiazole maleate]
Percent inhibition of acidity of gastric juice (gastric secretion): 37% | Percent inhibition of volume of gastric juice secretion (gastric secretion): 64%

c1ccc(Nc2nc(-c3ccc(CN4CCCCC4)s3)cs2)cc1 [Example 53, 2-Phenylamino-4-(5-piperidinomethyl-2-thienyl)thiazole]
ED50 (tonic seizure): 50 to 100 mg/kg

Nc1nc(-c2ccc(CN3CCOCC3)s2)cs1 [Example 5, 2-Amino-4-(5-morpholinomethyl-2-thienyl)thiazole]
Percent inhibition of acidity of gastric juice (gastric secretion): 22% | Percent inhibition of volume of gastric juice secretion (gastric secretion): 66% | Extention of the survival time (percentage, against control group) (hypoxia): 367% | survival of mice, intraperitoneal (Toxicity; in vivo): All mice survived | survival of mice, oral (Toxicity; in vivo): All mice survived

Nc1nc(-c2ccc(CN3CCCCC3)s2)cs1.O=C(O)/C=C/C(=O)O [Example 6, 2-Amino-4-(5-piperidinomethyl-2-thienyl)thiazole fumarate]
Percent inhibition (ulcer index, against control group) (gastric mucous membrane; 10 mg/kg i.p.): 59% | Extention of the survival time (percentage, against control group) (hypoxia): 278%

Nc1nc(-c2ccc(CCN3CCN(c4cccc(Cl)c4)CC3)s2)cs1 [Example 55, 2-Amino-4-[5-(2-(4-(3-chlorophenyl)-1-piperazinyl)ethyl)-2-thienyl]thiazolehydrochloride]
survival of mice, intraperitoneal (Toxicity; in vivo): All mice survived | survival of mice, oral (Toxicity; in vivo): All mice survived | ED50 (tonic seizure): 50 mg/kg

CCOCC(=O)NCc1ccc(-c2csc(N)n2)s1 [Example 14, 2-Amino-4-(5-ethoxyacetylaminomethyl-2-thienyl)thiazole]
Percent inhibition (ulcer index, against control group) (gastric mucous membrane; 3 mg/kg i.p.): 35% | Percent inhibition of acidity of gastric juice (gastric secretion): 39% | Percent inhibition of volume of gastric juice secretion (gastric secretion): 53% | Extention of the survival time (percentage, against control group) (hypoxia): 204% | survival of mice, intraperitoneal (Toxicity; in vivo): All mice survived | survival of mice, oral (Toxicity; in vivo): All mice survived

Nc1nc(-c2ccc(CCN3CCOCC3)s2)cs1 [Example 65, 2Amino-4-[5-(2-morpholinoethyl)-2-thienyl]thiazole]
Percent inhibition of acidity of gastric juice (gastric secretion): 39% | Percent inhibition of volume of gastric juice secretion (gastric secretion): 61% | Extention of the survival time (percentage, against control group) (hypoxia): 158%

CC(=O)NCc1ccc(-c2csc(N)n2)s1.Cl [Example 1, 2-amino-4-(5-acetylaminomethyl-2-thienyl)thiazole hydrochloride]
Extention of the survival time (percentage, against control group) (hypoxia): 280%

CC(=O)OCC(=O)NCc1ccc(-c2csc(N)n2)s1 [Example 11, 2-amino-4-(5-acetoxyacetylaminomethyl-2-thienyl) thiazole]
Percent inhibition (ulcer index, against control group) (gastric mucous membrane; 1 mg/kg i.p.): 73% | survival of mice, intraperitoneal (Toxicity; in vivo): All mice survived | survival of mice, oral (Toxicity; in vivo): All mice survived

Nc1nc(-c2ccc(CCN3CCCCC3)s2)cs1.O=C(O)/C=C\C(=O)O [Example 54, 2-Amino-4-[5-(2-piperidinoethyl)-2-thienyl]thiazole maleate]
ED50 (tonic seizure): 50 to 100 mg/kg
